For one series, the target named is CYP2E1 (Homo sapiens, UniProt P05181). The experiment in a line: incubation with recombinant human CYP2E1, metabolites by LC–MS/MS. In kind it is biochemical.
The target in the next series is T1, PPARα (Homo sapiens, UniProt Q07869).
T1 sequence (Q07869 1-468): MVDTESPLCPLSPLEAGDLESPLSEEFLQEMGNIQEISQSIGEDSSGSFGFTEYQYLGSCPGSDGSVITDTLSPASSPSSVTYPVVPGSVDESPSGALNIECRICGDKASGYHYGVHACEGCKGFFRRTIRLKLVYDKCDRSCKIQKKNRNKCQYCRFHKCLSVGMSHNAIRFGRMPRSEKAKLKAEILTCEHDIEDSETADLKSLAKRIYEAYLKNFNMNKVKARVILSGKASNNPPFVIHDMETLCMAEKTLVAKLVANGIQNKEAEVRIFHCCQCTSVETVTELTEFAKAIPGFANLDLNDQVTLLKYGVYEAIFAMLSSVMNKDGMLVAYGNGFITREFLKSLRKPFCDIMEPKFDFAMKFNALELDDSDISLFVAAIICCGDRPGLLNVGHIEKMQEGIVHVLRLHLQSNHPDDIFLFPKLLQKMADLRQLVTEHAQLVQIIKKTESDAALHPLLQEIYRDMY
As to the kind of experiment: SPR. The format is binding.

Chain of CYP2E1 (P05181 whole entry): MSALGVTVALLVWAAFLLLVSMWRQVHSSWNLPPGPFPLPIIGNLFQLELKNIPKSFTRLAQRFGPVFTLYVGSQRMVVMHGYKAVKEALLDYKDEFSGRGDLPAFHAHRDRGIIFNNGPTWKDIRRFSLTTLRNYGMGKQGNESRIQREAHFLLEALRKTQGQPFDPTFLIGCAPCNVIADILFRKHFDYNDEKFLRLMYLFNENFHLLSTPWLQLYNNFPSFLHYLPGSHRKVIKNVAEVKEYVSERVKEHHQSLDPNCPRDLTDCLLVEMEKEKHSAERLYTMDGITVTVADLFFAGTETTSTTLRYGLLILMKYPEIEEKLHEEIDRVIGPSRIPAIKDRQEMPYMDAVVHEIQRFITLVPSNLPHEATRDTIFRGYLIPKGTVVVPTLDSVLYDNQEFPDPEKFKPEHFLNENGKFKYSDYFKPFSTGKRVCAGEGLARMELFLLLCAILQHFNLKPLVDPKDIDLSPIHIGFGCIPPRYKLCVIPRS

Consider `CCCCC/C=C\C/C=C\C/C=C\C/C=C\CCCC(=O)O` [AA, arachidonic acid], for which the “incubation with recombinant human CYP2E1, metabolites by LC-MS/MS” value (shortened to “incubation with recombinant human CYP2E1”) on CYP2E1 was “All the compounds were metabolized by recombinant CYP2E1 and their metabolites identified by LC–MS/MS”. For the same compound, the Kd at PPARα was 16.1 µM.
On to `CC/C=C\C/C=C\C/C=C\C/C=C\C/C=C\C/C=C\CCC(=O)O` [DHA, docosahexaenoic acid], for which the “incubation with recombinant human CYP2E1” value on CYP2E1 is “All the compounds were metabolized by recombinant CYP2E1 and their metabolites identified by LC–MS/MS”. The same compound returned a Kd on PPARα of 14.3 µM.
Take `CCCCC/C=C\C/C=C\CCCCCCCC(=O)O` [LCA, 9,12-linoleic acid]: the “incubation with recombinant human CYP2E1” value on CYP2E1 was “metabolic sites on LCA by recombinant CYP2E1 protein were at C-6 to C-10, C-16, and C-17”. The compound further returned a Kd on PPARα of 23.8 µM.

For the origin of these results see PMC9136617 (Acta Pharmaceutica Sinica. B, 2022).
